The values that follow come from PMC3896386 (Journal of medicinal chemistry, 2013).

The target of experiment [1] is T1, RyR2-R4496C mutant HEK293 cell line (Mus musculus, UniProt E9Q401, R4495C). The following applies: previously reported; cited from earlier work.
Experiment [2] deals with T1, RyR2-R4496C mutant HEK293 cell line.

T1 sequence (E9Q401 whole entry R4495C): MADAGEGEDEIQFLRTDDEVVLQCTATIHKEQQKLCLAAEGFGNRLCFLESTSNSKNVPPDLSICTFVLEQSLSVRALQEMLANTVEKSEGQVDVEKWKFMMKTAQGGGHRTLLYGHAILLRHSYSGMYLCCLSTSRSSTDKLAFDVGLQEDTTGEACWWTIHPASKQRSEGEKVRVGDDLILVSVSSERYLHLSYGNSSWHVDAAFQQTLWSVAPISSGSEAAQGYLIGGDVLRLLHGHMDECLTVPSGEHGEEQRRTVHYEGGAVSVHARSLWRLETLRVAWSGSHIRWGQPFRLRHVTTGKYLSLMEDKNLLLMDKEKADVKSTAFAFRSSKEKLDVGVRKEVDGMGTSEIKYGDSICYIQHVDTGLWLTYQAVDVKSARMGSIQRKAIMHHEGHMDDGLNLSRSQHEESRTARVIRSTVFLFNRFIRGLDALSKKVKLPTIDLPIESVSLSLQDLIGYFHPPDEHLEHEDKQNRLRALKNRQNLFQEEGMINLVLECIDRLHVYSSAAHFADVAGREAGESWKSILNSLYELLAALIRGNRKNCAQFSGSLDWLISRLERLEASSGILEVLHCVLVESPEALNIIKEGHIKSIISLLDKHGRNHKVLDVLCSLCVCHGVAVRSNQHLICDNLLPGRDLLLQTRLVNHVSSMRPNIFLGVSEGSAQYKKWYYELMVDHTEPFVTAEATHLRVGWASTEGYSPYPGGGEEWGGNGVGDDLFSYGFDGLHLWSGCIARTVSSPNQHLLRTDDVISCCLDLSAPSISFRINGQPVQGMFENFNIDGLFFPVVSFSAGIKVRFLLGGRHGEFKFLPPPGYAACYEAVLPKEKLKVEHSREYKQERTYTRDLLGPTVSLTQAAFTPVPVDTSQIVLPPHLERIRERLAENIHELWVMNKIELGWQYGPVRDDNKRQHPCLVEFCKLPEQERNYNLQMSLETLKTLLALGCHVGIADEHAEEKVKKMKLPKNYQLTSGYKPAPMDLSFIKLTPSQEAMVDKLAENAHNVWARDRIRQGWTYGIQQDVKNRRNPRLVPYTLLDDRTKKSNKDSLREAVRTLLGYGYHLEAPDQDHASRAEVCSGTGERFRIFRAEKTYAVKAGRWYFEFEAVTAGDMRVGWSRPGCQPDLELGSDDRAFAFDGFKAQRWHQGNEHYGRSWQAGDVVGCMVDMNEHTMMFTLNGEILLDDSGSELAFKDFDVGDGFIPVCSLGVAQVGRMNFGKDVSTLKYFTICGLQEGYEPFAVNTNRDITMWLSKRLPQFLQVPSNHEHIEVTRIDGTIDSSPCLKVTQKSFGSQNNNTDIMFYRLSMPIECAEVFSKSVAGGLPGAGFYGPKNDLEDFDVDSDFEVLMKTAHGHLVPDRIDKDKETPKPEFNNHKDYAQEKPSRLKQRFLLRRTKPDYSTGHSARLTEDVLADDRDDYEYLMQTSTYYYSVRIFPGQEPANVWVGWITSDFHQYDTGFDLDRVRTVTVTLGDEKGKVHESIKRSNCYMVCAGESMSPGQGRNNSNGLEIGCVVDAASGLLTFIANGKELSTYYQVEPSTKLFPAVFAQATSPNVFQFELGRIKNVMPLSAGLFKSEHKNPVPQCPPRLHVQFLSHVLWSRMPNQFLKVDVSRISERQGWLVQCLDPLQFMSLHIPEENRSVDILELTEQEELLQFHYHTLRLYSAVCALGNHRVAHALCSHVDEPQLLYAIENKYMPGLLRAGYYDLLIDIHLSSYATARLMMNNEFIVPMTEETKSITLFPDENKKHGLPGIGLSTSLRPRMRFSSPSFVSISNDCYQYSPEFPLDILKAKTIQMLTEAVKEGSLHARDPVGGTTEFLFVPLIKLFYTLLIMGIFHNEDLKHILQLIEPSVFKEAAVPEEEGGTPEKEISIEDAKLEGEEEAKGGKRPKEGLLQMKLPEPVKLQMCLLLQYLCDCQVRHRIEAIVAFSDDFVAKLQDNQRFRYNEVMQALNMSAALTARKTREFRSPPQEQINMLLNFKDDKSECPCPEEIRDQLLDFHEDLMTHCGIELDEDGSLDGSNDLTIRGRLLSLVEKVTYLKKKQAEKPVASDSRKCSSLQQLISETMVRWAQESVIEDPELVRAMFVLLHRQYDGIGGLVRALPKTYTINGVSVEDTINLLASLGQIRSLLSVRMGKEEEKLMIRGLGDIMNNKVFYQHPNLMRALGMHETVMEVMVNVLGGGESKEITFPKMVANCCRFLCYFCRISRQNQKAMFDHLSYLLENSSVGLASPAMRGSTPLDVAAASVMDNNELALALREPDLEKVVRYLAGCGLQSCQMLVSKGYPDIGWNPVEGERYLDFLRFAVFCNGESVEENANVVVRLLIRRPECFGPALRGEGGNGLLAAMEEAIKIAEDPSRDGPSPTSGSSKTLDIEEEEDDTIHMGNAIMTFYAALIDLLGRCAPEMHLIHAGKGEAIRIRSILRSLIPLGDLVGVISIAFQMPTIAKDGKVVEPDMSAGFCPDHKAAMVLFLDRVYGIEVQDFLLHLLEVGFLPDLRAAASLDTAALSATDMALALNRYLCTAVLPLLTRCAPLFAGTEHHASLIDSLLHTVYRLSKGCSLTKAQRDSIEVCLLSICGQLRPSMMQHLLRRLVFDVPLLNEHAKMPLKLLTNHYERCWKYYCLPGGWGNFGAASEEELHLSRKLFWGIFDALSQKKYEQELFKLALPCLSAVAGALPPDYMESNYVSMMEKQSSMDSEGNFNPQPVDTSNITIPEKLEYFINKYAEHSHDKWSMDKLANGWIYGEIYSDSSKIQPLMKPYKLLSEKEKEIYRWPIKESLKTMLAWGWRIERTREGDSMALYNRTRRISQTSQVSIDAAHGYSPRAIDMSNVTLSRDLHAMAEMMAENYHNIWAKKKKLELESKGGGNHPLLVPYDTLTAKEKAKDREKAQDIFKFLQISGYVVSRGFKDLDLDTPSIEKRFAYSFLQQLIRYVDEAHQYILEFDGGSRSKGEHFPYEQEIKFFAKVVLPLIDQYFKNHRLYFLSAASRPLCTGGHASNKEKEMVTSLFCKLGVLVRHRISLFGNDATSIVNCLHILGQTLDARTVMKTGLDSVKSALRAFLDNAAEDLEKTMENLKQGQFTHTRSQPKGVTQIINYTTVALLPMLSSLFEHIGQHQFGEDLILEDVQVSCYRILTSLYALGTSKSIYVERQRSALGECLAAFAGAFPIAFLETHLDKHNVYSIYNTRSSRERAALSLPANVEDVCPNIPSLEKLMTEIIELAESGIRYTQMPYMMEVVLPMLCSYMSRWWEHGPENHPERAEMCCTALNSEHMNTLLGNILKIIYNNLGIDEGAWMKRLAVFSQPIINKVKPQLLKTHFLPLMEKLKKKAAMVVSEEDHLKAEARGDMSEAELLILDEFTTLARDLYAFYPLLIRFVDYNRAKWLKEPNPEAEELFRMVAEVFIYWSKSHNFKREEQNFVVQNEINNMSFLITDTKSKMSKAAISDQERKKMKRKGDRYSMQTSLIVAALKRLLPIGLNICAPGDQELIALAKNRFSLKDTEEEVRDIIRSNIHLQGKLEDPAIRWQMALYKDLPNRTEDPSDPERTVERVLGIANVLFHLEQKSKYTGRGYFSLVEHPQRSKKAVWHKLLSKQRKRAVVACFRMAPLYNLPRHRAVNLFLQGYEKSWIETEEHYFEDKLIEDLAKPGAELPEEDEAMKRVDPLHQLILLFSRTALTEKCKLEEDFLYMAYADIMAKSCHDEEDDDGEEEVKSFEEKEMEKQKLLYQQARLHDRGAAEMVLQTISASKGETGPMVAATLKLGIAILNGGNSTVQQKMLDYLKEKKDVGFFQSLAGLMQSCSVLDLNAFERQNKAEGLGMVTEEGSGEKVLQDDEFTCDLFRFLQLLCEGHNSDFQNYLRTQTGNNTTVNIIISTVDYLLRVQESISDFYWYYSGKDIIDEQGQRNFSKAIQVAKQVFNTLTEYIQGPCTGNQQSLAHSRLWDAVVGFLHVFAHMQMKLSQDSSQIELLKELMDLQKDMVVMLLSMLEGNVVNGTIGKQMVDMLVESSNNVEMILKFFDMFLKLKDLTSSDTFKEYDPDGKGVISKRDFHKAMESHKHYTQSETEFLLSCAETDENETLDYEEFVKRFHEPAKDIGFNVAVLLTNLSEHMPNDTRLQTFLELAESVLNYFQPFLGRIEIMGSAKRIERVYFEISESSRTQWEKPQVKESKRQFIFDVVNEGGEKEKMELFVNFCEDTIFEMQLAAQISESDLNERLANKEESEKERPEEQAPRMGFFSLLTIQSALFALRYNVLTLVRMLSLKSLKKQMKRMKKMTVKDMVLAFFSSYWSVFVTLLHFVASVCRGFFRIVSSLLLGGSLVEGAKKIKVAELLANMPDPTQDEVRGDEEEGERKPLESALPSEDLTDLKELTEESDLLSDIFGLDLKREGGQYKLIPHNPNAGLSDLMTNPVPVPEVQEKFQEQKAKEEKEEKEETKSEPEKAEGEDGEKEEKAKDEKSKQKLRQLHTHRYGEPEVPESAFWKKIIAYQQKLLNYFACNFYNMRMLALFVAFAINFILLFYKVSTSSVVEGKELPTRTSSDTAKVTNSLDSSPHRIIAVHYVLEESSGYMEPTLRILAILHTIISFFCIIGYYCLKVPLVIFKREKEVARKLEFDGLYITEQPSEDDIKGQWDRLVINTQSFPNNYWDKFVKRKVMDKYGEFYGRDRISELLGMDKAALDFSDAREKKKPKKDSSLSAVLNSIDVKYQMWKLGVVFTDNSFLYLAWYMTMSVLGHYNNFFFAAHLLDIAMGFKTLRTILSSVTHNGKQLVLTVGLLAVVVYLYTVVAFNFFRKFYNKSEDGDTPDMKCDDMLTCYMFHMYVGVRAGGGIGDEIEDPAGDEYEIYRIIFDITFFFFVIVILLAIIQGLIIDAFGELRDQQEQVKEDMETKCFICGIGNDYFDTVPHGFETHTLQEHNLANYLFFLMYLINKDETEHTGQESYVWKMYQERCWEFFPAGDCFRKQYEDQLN

Consider `COc1ccccc1OCCNCC(O)COc1cccc2[nH]c3ccccc3c12` (stereo not drawn) [carvedilol 1, carvedilol], for which the “ability to inhibit SOICR” value in experiment [1] is “ca. 10 μmolar”.
Turning to `COc1ccccc1OCCN1CCC(COc2cccc3[nH]c4ccccc4c23)OCC1=O` (stereo not drawn) [compound 35, 7-[(9H-carbazol-4-yloxy)methyl]-4-[2-(2-methoxyphenoxy)ethyl]-1,4-oxazepan-3-one], the “decrease of SOICR-inhibiting activity on lactamization of 34” value in experiment [2] (relative to 34) is listed as “more than 6 fold”.
For `COc1ccccc1OCCNCC(O)COc1ccc2c(c1)Nc1ccccc1S2(=O)=O` (stereo not drawn) [compound 67, 2-(2-Hydroxy-3-{[2-(2-methoxyphenoxy)ethyl]amino}propoxy)-10H-5λ6,10-phenothiazine-5,5-dione], the “decrease of SOICR-inhibiting activity on oxidation of 66 to the sulfone” value in experiment [2] (relative to 66) is reported as “more than 10 fold”.
